Results from US20070140972A1, “Targeting compositions and preparation therof” (CTT CANSER TARGETING TECHNOLOGIES OY, priority 2003, published 2007).
Where a SMILES comes first, the peptide text is derived from it.

What was measured:
[1] = test system: tumour cell migration; experiment: Inhibition of tumour cell migration; assay type: cell-based; settings: versus wild type CTT2 peptide
[2] = test system: human ovarian carcinoma tumours (OV-90); experiment: Biodistribution of I-125 labelled 6F-Trp CTT2 peptide in OV-90 tumour mice (gamma counting); assay type: in vivo; settings: 30 min and 180 min; clearance comparable to blood
Method: FIG. 8. The biodistribution study of I-125 labelled 6F-Trp CTT2 ([…][6-fluoro]WGFTLC)-peptide. The in vivo biodistribution of the ^125I-labeled peptide was assessed at two time points in NMRI/nude mice carrying human ovarian tumours on their lower back. Results are expressed as percentage of injected dose per 1 g tissue (% ID/1 g). All values are indicated as mean±SD of 5 mice.
The 6F-Trp CTT2 peptide was used in biodistribution study to evaluate its kinetic and tumour targeting properties. The study was performed in mice with established human ovarian carcinoma tumours (OV-90). The 6F-Trp CTT2 peptide was labelled with iodine-125. 40 μg of purified and labelled peptide (˜1 MBq) was injected into the tail vein of mice. 30 min and 180 min after peptide injection mice were sacrificed and blood and tissue samples were collected. The accumulated radioactivity was determined with gamma counter.

[3] = Serum stability of CTT2 derivative; assay type: in vitro ADME; settings: versus wild type CTT2 peptide
[4] = test system: A2780 cells; experiment: Therapeutic efficacy (survival) in A2780 xenograft mice; assay type: in vivo, NMRI nude female mice; settings: three injections in three-day intervals; sacrificed when tumour exceeded 1000 mm^3
Method: A2780 cells were injected subcutaneously into the posterior flanks of 50 NMRI nude female mice. The mice were randomly allocated into five treatment groups. […] In this study, the mice received three drug injections of 9 mg liposomal or free doxorubicin/kg in three-day intervals.
The mice were weighed and their tumour sizes were measured twice a week after treatment initiation. When tumour sizes exceeded 1000 mm^3 the mice were sacrificed.

CC(C)C[C@@H]1NC(=O)[C@H]([C@@H](C)O)NC(=O)[C@H](Cc2ccccc2)NC(=O)CNC(=O)C(Cc2c[nH]c3cc(F)ccc23)NC(=O)[C@H](Cc2c[nH]cn2)NC(=O)[C@H]([C@@H](C)O)NC(=O)[C@H]([C@@H](C)O)NC(=O)[C@@H](NC(=O)CNC(=O)[C@H](Cc2c[nH]cn2)NC(=O)[C@H](Cc2ccc(O)cc2)NC(=O)[C@H](CC(N)=O)NC(=O)[C@H](CCC(=O)O)NC(=O)[C@H](CCCNC(=N)N)NC(=O)CN)CSSC[C@@H](C(N)=O)NC1=O (stereo partly drawn) [6F-Trp CTT2, GRENYHG-Cyclo(CTTH(d,l-6-Fluoro-W)GFTLC)-NH2] (HELM PEPTIDE1{G.R.E.N.Y.H.G.C.T.T.H.[O=C(C(Cc1c[nH]c2cc(F)ccc12)N[*:1])[*:2]].G.F.T.L.C.[am]}$PEPTIDE1,PEPTIDE1,8:R3-17:R3$$$V2.0; N-terminus assumed)
ability to inhibit tumour cell migration in comparison to the wild type peptide [1]: improved ability to inhibit tumour cell migration | accumulation of radioactivity in all other organs [2]: negligible | serum stability in comparison to the wild type peptide [3]: enhancement in serum stability

COc1cccc2c1C(=O)c1c(O)c3c(c(O)c1C2=O)C[C@@](O)(C(=O)CO)C[C@@H]3O[C@H]1C[C@H](N)[C@H](O)[C@H](C)O1 [free doxorubicin, doxorubicin]
survival status by five weeks after treatment initiation [4]: had been sacrificed
